Laboratory results taken from PMC6222450, “Computer-Aided Studies for Novel Arylhydantoin 1,3,5-Triazine Derivatives as 5-HT6 Serotonin Receptor Ligands with Antidepressive-Like, Anxiolytic and Antiobesity Action In Vivo” (Molecules : A Journal of Synthetic Chemistry and Natural …, 2018).
“And” between values parts separate entries of the source, which are not always exact repeats. Equal values may be shown once.

Experiments:
[1] = target: T1, human serotonin 5-HT6R (Homo sapiens, UniProt P50406); assay: Radioligand binding assay, 5-HT6R, [3H]-LSD displacement; settings: for Ki: human receptor stably expressed in HEK-293 cells, mean of at least two independent experiments, read-out: Ki 5-HT6 [3H]-LSD
T1 construct: expressed in transfected cells; host or cells: HEK-293
Experimental: Five selective radioligands were employed (Table 1).
Radioligand binding assays were used to determine the affinity of the synthesized compounds for human serotonin 5-HT6R, which were stably expressed in HEK-293 cells. […] Each compound was tested in triplicate at 7 to 8 different concentrations (10^−11 to 10^−4 M). The inhibition constants (Ki) were calculated using the Cheng–Prusoff equation [40], and the results are expressed as the mean of at least two independent experiments.

[2] = target: T2, dopaminergic D2LR (Homo sapiens, UniProt P14416); assay: Radioligand binding assay, D2LR, [3H]-Raclopride; settings: human D2L receptor stably expressed in HEK-293 cells; read-out: Ki D2 [3H]-Raclopride
T2 construct: expressed in transfected cells; host or cells: HEK-293

[3] = target: T3, 5-HT1A (Homo sapiens, UniProt P08908); assay: Radioligand binding assay, 5-HT1A, [3H]-8-OH-DPAT; settings: human receptor stably expressed in HEK-293 cells
T3 construct: expressed in transfected cells; host or cells: HEK-293
T3 sequence (P08908 1-422): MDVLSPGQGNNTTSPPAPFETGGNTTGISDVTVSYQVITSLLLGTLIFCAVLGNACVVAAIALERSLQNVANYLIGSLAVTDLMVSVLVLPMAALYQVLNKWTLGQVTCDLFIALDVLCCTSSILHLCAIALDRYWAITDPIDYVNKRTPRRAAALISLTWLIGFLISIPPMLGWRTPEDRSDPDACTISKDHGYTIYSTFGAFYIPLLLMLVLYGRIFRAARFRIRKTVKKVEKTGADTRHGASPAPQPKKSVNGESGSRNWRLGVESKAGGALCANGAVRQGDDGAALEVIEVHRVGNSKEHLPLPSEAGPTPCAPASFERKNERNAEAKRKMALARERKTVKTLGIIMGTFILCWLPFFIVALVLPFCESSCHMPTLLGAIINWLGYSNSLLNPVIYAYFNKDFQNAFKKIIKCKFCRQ

[4] = target: T4, 5-HT2A (Homo sapiens, UniProt P28223); assay: Radioligand binding assay, 5-HT2A, [3H]-Ketanserin; settings: human receptor stably expressed in HEK-293 cells
T4 construct: expressed in transfected cells; host or cells: HEK-293

[5] = target: T5, 5-HT7bR (Homo sapiens, UniProt P34969); assay: Radioligand binding assay, 5-HT7bR, [3H]-5-CT; settings: human 5-HT7b receptor stably expressed in HEK-293 cells; read-out: Ki 5-HT7 [3H]-5-CT
T5 construct: expressed in transfected cells; host or cells: HEK-293

[6] = Lipophilicity by RP-TLC; type: physicochemical; settings: RP-18 TLC, water/methanol, extrapolated to 100% water
Experimental: For comparison, the active arylmethyl-triazine compounds previously found (1–3) were also examined. Stationary phase RP-18 and mixtures of water/methanol […] as a mobile phase were employed. RM values were calculated from the RF data obtained. […] The regression coefficients (r^2) determined for all compounds were higher than 0.95. On the basis of the linear relationship between RM values and the volume fraction of methanol, values of RM0 in the systems analyzed corresponding to 100% of water were obtained by extrapolation. RM0 values received for the compounds tested ranged from 3.14 to 4.49 (Figure 6).
The mobile phases were prepared by mixing the respective amounts of water and organic modifier (methanol) in a range from 40 to 90% (v/v) in 5% increments. TLC was performed on Silica gel 60RP-18 F254 plates (7 × 10 cm) plates (Merck, Darmstadt, Germany). Methanol was used to prepare the solutions of the substances. Solutions (10 µL) of the analyzed compounds were applied to the plates as 5 mm bands, 10 mm apart and 10 mm from the lower edge and sides of the plates, by using Linomat V applicator (Camag, Basel, Switzerland). The vertical chamber (Sigma–Aldrich, St. Louis, MI, USA), 20 × 10 × 18 cm in size, was saturated with mobile phase for 20 min. Development was carried out over 9 cm from the starting line at a temperature of 20 °C. Next, the plates were dried at room temperature, and the spots were observed under ultraviolet light at 254 nm and/or 366 nm (UV lamp, Camag, Basel, Switzerland). In each case, sharp and symmetric spots without a tendency for tailing were obtained. Each experiment was run in triplicate and mean RF (retardation factor) values were calculated.
Starting from the RF values, the RM parameters were computed as described in the formula:RM = log(1/RF − 1)
The linear correlations between the RM values of the substances and the concentration of methanol in mobile phases were calculated for each compound with the Soczewiński-Wachtmeister equation [22]:RM = RM0 + aC where C is the concentration of the organic modifier (in %) in the mobile phase, a is the slope, and RM0 is the […].

[7] = system: HEK-293 cells; assay: Toxicity in vitro, MTS test; type: cell-based; settings: 72 h
Experimental: The preliminary evaluation of the safety profile for the most promising 5-HT6R ligands 6 and 26 was performed in vitro with the HEK-293 eukaryotic cell line. The compounds examined were dissolved in culture growth media and incubated with cells for 72 h. Next, the MTS test was applied to determine the viability of the cells. […] The reference cytostatic drug doxorubicin (DX) at the very low concentration 1 μM was also cytotoxic.
The ATCC CRL 1573 HEK-293 cells were seeded in 96-well plates (NuncTM) at a concentration of 1 × 10^4 cells/well in 200 μL in Dulbecco’s Modified Eagle’s Medium (Gibco®) supplemented with 10% fetal bovine serum (Gibco®), and cultured at 37 °C in an atmosphere containing 5% of CO2 for 24 h to reach 60% confluence. The 10 mM stock solutions of 5-HT6R ligands 6 and 26 in DMSO were diluted into fresh growth medium and added into the microplates at the final concentrations 0.1 μM –100 μM. […] The cytostatic drug doxorubicin (Sigma-Aldrich) at the concentration 1 μM was used as a reference. After 72 h of incubation 20 μL of CellTiter 96® AQueous Non-Radioactive Cell Proliferation Assay (MTS) (Promega®) was added to each well and the cells were incubated under the same conditions for 2 h. The absorbance of the samples was measured using a microplate reader EnSpire (PerkinElmer, Waltham, MA, USA) at 490 nm. Statistical significance was analyzed by GraphPad Prism™ software v. 5.01 (GraphPad Software, La Jolla, CA, USA) using One-way ANOVA and Bonferroni’s Multiple Comparison Post Test.

[8] = Body weight of non-obese rats fed palatable diet (model of excessive eating); type: in vivo, rat
Source text: In order to determine the anorectic activity of 6 or 26, the model of excessive eating was used. Male Wistar rats (170–190 g) were housed in a pair in plastic cages in constant temperature facilities exposed to a light-dark cycle. Water and food were available ad libitum. Two groups of 6 rats were fed with diets consisting of milk chocolate with nuts, cheese, salted peanuts, and 7% condensed milk and also had access to standard feed (Labofeed B, Morawski Manufacturer Feed, Kcynia, Poland) and water ad libitum for 3 weeks. Palatable control group (palatable diet + vehicle) received vehicle (1% Tween 80, intraperitoneally), while palatable test group (palatable diet + 6 or palatable + 26) was injected (intraperitoneally) with 6 or 26 at the dose of 5 mg/kg b.w. dissolved in 1% Tween 80 (1 mL/kg). Body weights were measured daily, immediately prior to administration of drugs.
The palatable diet contained: 100 g peanuts—614 kcal; 100 mL condensed milk—131 kcal; 100 g milk chocolate—529 kcal; 100g cheese (Greek type)—270 kcal. The standard diet contained 100 g feed—280 kcal.

[9] = Body weight of non-obese rats fed only standard diet; type: in vivo, rat; settings: rats consuming standard feed, 5 mg/kg b.w. i.p.
Experimental: Male Wistar rats (170–190 g) were housed in a pair in plastic cages in constant temperature facilities exposed to a light-dark cycle. Control group (standard diet + vehicle) received vehicle (1% Tween 80, intraperitoneally), while the test group (standard diet + 6 or standard diet + 26) was injected (intraperitoneally) with 6 or 26 at the dose of 5 mg/kg b.w. dissolved in 1% Tween 80 (1 mL/kg). Body weights were measured daily immediately prior to administration of drugs.

T4 sequence (P28223 whole entry): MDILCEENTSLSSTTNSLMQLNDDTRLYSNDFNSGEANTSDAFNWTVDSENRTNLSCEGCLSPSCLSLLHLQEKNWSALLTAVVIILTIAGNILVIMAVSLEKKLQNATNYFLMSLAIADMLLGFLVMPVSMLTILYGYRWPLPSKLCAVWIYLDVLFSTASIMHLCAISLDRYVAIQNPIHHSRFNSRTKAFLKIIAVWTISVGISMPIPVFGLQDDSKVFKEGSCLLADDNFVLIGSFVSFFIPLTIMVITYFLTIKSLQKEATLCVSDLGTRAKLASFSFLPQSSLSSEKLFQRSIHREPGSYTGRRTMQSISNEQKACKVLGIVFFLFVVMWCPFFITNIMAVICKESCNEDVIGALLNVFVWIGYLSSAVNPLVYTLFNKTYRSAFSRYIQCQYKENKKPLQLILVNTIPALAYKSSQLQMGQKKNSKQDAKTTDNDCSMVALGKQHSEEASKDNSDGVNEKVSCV
T1 sequence (P50406 whole entry): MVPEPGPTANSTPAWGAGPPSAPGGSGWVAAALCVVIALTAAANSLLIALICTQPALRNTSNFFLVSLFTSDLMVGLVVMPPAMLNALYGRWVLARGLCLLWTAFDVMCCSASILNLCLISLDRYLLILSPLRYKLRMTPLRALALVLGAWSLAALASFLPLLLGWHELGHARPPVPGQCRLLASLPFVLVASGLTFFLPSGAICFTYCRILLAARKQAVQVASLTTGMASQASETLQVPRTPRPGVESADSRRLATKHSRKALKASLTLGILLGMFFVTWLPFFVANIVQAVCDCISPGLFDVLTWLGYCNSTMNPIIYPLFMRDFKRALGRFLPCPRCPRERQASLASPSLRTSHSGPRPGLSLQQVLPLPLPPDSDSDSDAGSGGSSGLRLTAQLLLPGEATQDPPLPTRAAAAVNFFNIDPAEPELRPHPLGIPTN
T2 sequence (P14416 whole entry): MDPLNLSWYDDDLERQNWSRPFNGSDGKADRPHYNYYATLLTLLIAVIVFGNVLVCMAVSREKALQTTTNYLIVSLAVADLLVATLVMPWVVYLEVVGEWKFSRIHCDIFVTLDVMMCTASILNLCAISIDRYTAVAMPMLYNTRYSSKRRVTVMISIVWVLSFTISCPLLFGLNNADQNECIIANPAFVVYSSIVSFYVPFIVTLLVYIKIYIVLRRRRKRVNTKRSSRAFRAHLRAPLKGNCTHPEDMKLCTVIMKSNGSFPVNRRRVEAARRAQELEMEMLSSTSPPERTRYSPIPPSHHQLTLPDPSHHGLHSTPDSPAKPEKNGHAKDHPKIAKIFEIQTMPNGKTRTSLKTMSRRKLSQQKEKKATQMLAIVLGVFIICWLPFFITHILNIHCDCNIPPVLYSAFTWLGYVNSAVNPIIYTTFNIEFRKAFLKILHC
T5 sequence (P34969 1-432 limits assumed): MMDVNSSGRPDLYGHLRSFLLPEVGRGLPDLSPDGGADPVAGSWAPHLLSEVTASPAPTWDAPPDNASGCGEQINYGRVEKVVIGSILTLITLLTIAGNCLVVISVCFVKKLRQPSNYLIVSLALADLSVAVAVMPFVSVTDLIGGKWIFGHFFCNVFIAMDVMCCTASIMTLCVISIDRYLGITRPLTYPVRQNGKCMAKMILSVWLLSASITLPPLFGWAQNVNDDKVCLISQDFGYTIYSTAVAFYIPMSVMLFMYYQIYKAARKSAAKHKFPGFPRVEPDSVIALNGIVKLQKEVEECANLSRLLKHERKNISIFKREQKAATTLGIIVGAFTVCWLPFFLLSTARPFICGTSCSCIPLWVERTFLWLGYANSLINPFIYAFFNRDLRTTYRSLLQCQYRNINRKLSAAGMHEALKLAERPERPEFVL

| SMILES | Ki [1] | Ki [2] | Ki [3] | Ki [5] | RM0 [6] | also measured |
| --- | --- | --- | --- | --- | --- | --- |
| CN1CCN(c2nc(N)nc(CN3C(=O)N(Cc4ccc5ccccc5c4)C(C)(C)C3=O)n2)CC1 [Compound 18] | < 0.2 µM and 0.182 µM | 0.888 µM | 5.72 µM | 1.53 µM | 4.04 | Ki [4]: 1.91 µM |
| COc1cccc2c1C(=O)c1c(O)c3c(c(O)c1C2=O)C[C@@](O)(C(=O)CO)C[C@@H]3O[C@H]1C[C@H](N)[C@H](O)[C@H](C)O1 [doxorubicin, reference compound] |  |  |  |  |  | viability of HEK-293 cells ([7]; 1 μM): cytotoxic |
| CN1CCN(c2nc(N)nc(Cc3cccc4ccccc34)n2)CC1 [Compound 1, reference compound] |  |  |  |  | 3.14 |  |
| CN1CCN(c2nc(N)nc(CN3C(=O)NC(C)(c4ccc(Cl)cc4)C3=O)n2)CC1 (stereo not shown) [Compound 7, 3-((4-Amino-6-(4-methylpiperazin-1-yl)-1,3,5-triazin-2-yl)methyl)-5-(4-chlorophenyl)-5-methylimidazolidine-2,4-dione] | < 0.2 µM and 0.176 µM | 31.2 µM | 28.1 µM | 0.938 µM | 3.51 |  |
| CN1CCN(c2nc(N)nc(CN3C(=O)NC(C)(c4cccc5ccccc45)C3=O)n2)CC1 (stereo not shown) [Compound 25, 3-((4-Amino-6-(4-methylpiperazin-1-yl)-1,3,5-triazin-2-yl)methyl)-5-methyl-5-(naphthalen-1-yl)imidazolidine-2,4-dione] | < 0.2 µM and 0.121 µM | 7.81 µM | 7.15 µM | 3.37 µM | 4.16 | selectivity in words ([1]; 5-HT6R vs competitive GPCRs tested): highly selective; Ki [4]: 8.08 µM |
| CN1CCN(c2nc(N)nc(CN3C(=O)N(Cc4ccc(Cl)cc4)C(=O)C3(C)C)n2)CC1 [Compound 5, 3-(4-Chlorobenzyl)-1-((4-amino-6-(4-methylpiperazin-1-yl)-1,3,5-triazin-2-yl)methyl)-5,5-dimethylimidazolidine-2,4-dione] | 4.28 µM | 5.01 µM | 15.4 µM | 1.62 µM | 3.22 |  |
| Cc1cccc(Cc2nc(N)nc(N3CCN(C)CC3)n2)c1 [Compound 3, reference compound] |  |  |  |  | 3.58 |  |
| CN1CCN(c2nc(N)nc(CN3C(=O)N(Cc4ccc(Cl)cc4)C(C)(C)C3=O)n2)CC1 [Compound 6, 1-(4-Chlorobenzyl)-3-((4-amino-6-(4-methylpiperazin-1-yl)-1,3,5-triazin-2-yl)methyl)-5,5-dimethylimidazolidine-2,4-dione] | < 0.2 µM and 0.127 µM | 4.1 µM | 23.3 µM | 3.71 µM | 3.39 | day of experiment from which groups differed significantly ([8]; rats fed palatable feed, 5 mg/kg b.w. i.p. daily): 16 days; weight gain vs control group ([8]; rats fed palatable feed, 5 mg/kg b.w. i.p., 21 days): significantly less weight gain; body weight vs control animals fed standard feed ([8]; treated rats with access to preferential feed, 5 mg/kg b.w. i.p.): differed significantly; effect on body weight [9]: No effects on body weight; toxicity in HEK-293 cells ([7]; 0.1 μM–100 μM): low; viability of HEK-293 cells ([7]; 100 μM, *** p < 0.001): statistically significant decrease of viability |
| CN1CCN(c2nc(N)nc(CN3C(=O)NC(C)(c4ccc(Cl)c(Cl)c4Cl)C3=O)n2)CC1 (stereo not shown) [Compound 23, 3-((4-Amino-6-(4-methylpiperazin-1-yl)-1,3,5-triazin-2-yl)methyl)-5-(2,3,4-trichlorophenyl)-5-methylimidazolidine-2,4-dione] | < 0.2 µM and 0.195 µM | 4.74 µM | 6.03 µM | 8.9 µM | 4.49 | Ki [4]: 3.43 µM |
| CN1CCN(c2nc(N)nc(Cc3cccc(Cl)c3)n2)CC1 [Compound 2, reference compound] |  |  |  |  | 3.25 |  |
| CN1CCN(c2nc(N)nc(CN3C(=O)NC(c4ccc(Cl)cc4)(c4ccc(Cl)cc4)C3=O)n2)CC1 [Compound 8, 3-((4-Amino-6-(4-methylpiperazin-1-yl)-1,3,5-triazin-2-yl)methyl)-5,5-bis(4-chlorophenyl)imidazolidine-2,4-dione] | 1.06 µM | 6.85 µM | 3.05 µM | 0.594 µM | 4.46 |  |
